Data published in PubChem BioAssay (NCI).
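Cultured in 96-well plates, cells were exposed to test compound for 48 hours across five concentrations. The concentration for 50% growth inhibition is given as GI50. Definition used: TGI = concentration required for complete inhibition of growth.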

Key:
Assay in all cases: NCI anticancer screen, dose series, 48 h
OVCAR-5 ovarian = test system: OVCAR-5 ovarian
HL-60(TB) leukemia = test system: HL-60(TB) leukemia
NCI/ADR-RES ovarian = test system: NCI/ADR-RES ovarian
HT29 colon = test system: HT29 colon
LOX IMVI melanoma = test system: LOX IMVI melanoma
DU-145 prostate = test system: DU-145 prostate
T-47D breast = test system: T-47D breast
COLO 205 colon = test system: COLO 205 colon
SK-MEL-2 melanoma = test system: SK-MEL-2 melanoma
KM12 colon = test system: KM12 colon
NCI-H522 lung = test system: NCI-H522 lung

Row | SMILES | TGI (OVCAR-5 ovarian) [µM] | TGI (HL-60(TB) leukemia) [µM] | TGI (NCI/ADR-RES ovarian) [µM] | TGI (HT29 colon) [µM] | TGI (LOX IMVI melanoma) [µM] | TGI (DU-145 prostate) [µM] | TGI (T-47D breast) [µM] | TGI (COLO 205 colon) [µM] | TGI (SK-MEL-2 melanoma) [µM] | TGI (KM12 colon) [µM] | TGI (NCI-H522 lung) [µM] | GI50 (DU-145 prostate) [µM]
1 | O=C1CC(Br)c2c(Cl)sc(Cl)c21 (centres undefined) | 36.3 | 6.9 | 90.1 | 41.7 | 4.4 | 31.3 | 16 | 28.6 | 32.3 | 20.2 | 37.3 | –
2 | CC(C)(C)OC(=O)C1=C(C(=O)OC(C)(C)C)SC2(S1)C(C(=O)OC(C)(C)C)=C(C(=O)OC(C)(C)C)Sc1c2ssc1=O | > 100 | > 100 | > 100 | > 100 | > 100 | > 100 | > 100 | > 100 | > 100 | > 100 | > 100 | –
3 | OC(c1cccs1)c1cc2ccccc2s1 (centres undefined) | > 10 | > 10 | > 10 | > 10 | > 10 | > 10 | > 10 | > 10 | > 10 | > 10 | > 10 | –
4 | C=CC1OC(CCCOC(=O)C(C)(C)C)O[C@@H]1CC (some centres undefined) | > 100 | > 100 | > 100 | > 100 | – | > 100 | > 100 | > 100 | > 100 | > 100 | > 100 | –
5 | COC(=O)C1=NN2c3ccccc3C(=O)OCCC2C1 (centres undefined) | > 100 | > 100 | > 100 | > 100 | > 100 | > 100 | > 100 | > 100 | > 100 | > 100 | > 100 | –
6 | CCOC(=O)CCC(C(=O)OCC)n1nc2ccc(Nc3c(C)[n+]([O-])c4cc(Cl)ccc4[n+]3[O-])cc2n1 (centres undefined) | > 100 | > 100 | > 100 | > 100 | > 100 | > 100 | > 100 | > 100 | > 100 | > 100 | > 100 | –
7 | O=[N+]([O-])CC(SCc1ccccc1)c1ccc2c(c1)OCO2 (centres undefined) | 30.2 | 3.68 | 28.8 | 7.64 | 3.39 | 30 | 47.7 | 21.1 | 39.3 | 19.1 | 28.3 | –
8 | O=C1Oc2ccccc2C(=O)/C1=C/N1C(=O)/C(=C/c2ccc([N+](=O)[O-])cc2)SC1=S | > 100 | > 100 | 95.7 | > 100 | > 100 | > 100 | 51.7 | 53.2 | 82.4 | 52.3 | 70.1 | –
9 | COC(=O)c1ccc2n1C1CC3CC(CC2C3)C1 | > 100 | 54.7 | > 100 | > 100 | > 100 | > 100 | > 100 | > 100 | > 100 | > 100 | > 100 | –
10 | Cc1cccc(-c2cc(=O)c3ccc(C)nc3[nH]2)c1 | > 100 | 0.526 | 0.383 | 1.82 | > 100 | > 56.9 | > 100 | 4.06 | > 100 | 20.5 | 0.75 | –
11 | CC(=O)Oc1ccn2nc(C)c(Br)c2c1Br | – | > 66.5 | > 100 | 44.6 | 36 | > 100 | > 76.8 | 38 | > 67 | > 100 | 36.8 | –
12 | O=[N+]([O-])c1ccc(Cl)cc1C1ON=C(c2ccccc2)N1C12CC3CC(CC(C3)C1)C2 (centres undefined) | > 100 | > 100 | > 100 | > 100 | > 100 | > 100 | > 100 | > 100 | > 100 | – | > 100 | –
13 | COc1nn(Cc2ccccc2F)c2ccc([N+](=O)[O-])cc12 | > 100 | > 100 | > 100 | > 100 | > 100 | > 100 | > 100 | > 100 | > 100 | > 100 | > 100 | –
14 | Oc1ccc(-c2nc3cc(C(F)(F)F)ccc3n2CC2CCCN3CCCCC23)cc1 (centres undefined) | 67 | 12.3 | 32.9 | 34.7 | 28.8 | 36.1 | 47.6 | – | 27.9 | 29.3 | 29 | –
15 | CC(C)(C)c1cc(-c2ccc(-c3cc(C(C)(C)C)c(O)c(C(C)(C)C)c3)cc2)cc(C(C)(C)C)c1O | > 100 | > 100 | > 100 | > 100 | > 100 | > 100 | > 100 | > 100 | > 100 | > 100 | > 100 | –
16 | COC(=O)C1OC(O[C@H]2CC[C@]3(C)[C@H]4CC=C5[C@@H]6CC(C)(C)CC[C@]6(C(=O)OC)[C@H](O)C[C@@]5(C)[C@]4(C)CC[C@H]3C2(C)C)C(O)C(O)C1O (some centres undefined) | 26 | 13.7 | 26.3 | 13.5 | 17.1 | 21.6 | 28.6 | 17.5 | 28.7 | 4.21 | 3.06 | –
17 | N#Cc1c(=O)c2cc([N+](=O)[O-])ccc2n2c1[nH]c1ccccc12 | > 100 | > 100 | > 56.4 | > 87.9 | > 50.4 | > 100 | > 72.7 | > 44.4 | > 69.1 | > 57.2 | 5.75 | –
18 | CCOC(=O)CCC(NC(=O)c1ccc(CNc2nc3cc(N)cc(N)c3nc2-c2ccccc2)cc1)C(=O)OCC (centres undefined) | > 100 | > 45 | > 100 | > 100 | > 100 | > 100 | 49.1 | > 100 | > 87.9 | > 100 | > 100 | –
19 | COc1ccc(C(=O)N2CCN(c3ccc4c(c3)OCC(=O)N4)CC2)cc1 | > 100 | > 100 | > 100 | > 100 | > 100 | > 100 | > 100 | > 100 | > 100 | > 100 | > 100 | –
20 | C=C(C)CCC1CCCCC(CN(C)C)C1=O (centres undefined) | > 100 | > 100 | > 100 | > 100 | > 100 | > 100 | > 100 | > 100 | > 100 | > 100 | 27.2 | –
21 | CC1=C(C(=O)OCCO[N+](=O)[O-])C(c2ccccc2C(F)(F)F)C(C(=O)OC(C)C)=C(C)N1 (centres undefined) | 37.3 | > 100 | 57.8 | 36.3 | 27.3 | > 100 | > 100 | 28.4 | 29.7 | 21.8 | 44.4 | –
22 | NC1CC2C3CCC2C1C3=O (centres undefined) | > 100 | > 100 | > 100 | > 100 | > 100 | > 100 | > 100 | > 100 | > 100 | > 100 | > 100 | –
23 | Cc1ccc(S(=O)(=O)N2CCSCCSCCN(S(=O)(=O)c3ccc(C)cc3)CCN(S(=O)(=O)c3ccc(C)cc3)CC2)cc1 | > 100 | > 100 | > 100 | > 100 | > 100 | > 100 | > 100 | > 100 | > 100 | > 100 | > 100 | –
24 | C=CCN1C(=O)/C(=C/c2ccc(C)cc2)N=C1SC/C=C/C | > 100 | 47.9 | > 100 | > 100 | 44.5 | > 100 | 83.3 | 90.5 | 57.7 | > 100 | > 100 | –
25 | Cc1cc2c(cc1O)CC[C@@H]1[C@@H]2CC[C@]2(C)[C@@H](O)CC[C@@H]12 | 71.9 | 5.54 | 27.2 | 31.6 | 27 | 36.1 | 38.9 | 32.5 | 19.8 | 15.7 | 23.4 | 16
26 | O=C(O)c1c(-c2c3ccc(=O)cc-3oc3cc(O)ccc23)cc2ccccc2c1-c1ccccc1 | > 100 | > 100 | > 100 | > 100 | > 100 | > 100 | > 100 | > 100 | > 100 | > 100 | > 100 | –
27 | O=C(O)Cc1ccc(N2N=C(c3ccccc3)CC2=O)cc1 | > 100 | > 100 | > 100 | > 100 | – | > 100 | > 100 | > 100 | > 100 | > 100 | > 100 | –
28 | Cn1c(N2CCCC2)c(C=O)c(=O)n(C)c1=O | > 100 | > 100 | > 100 | > 100 | > 100 | > 100 | > 100 | > 100 | > 100 | > 100 | > 100 | –
29 | C/C=C(/C)C(=O)O[C@@H]1c2c(C)coc2C[C@H]2CC[C@H](O)[C@H](C)[C@]21C | > 100 | 87 | 55.9 | > 100 | > 100 | > 100 | > 100 | > 100 | – | > 100 | > 100 | –
